pEC50: −log10 of the molar value. Active and inactive are the calls of the source. No cut-off for these calls is given here.
Assays:
Type in all cases: functional, cell-based
[1] = target: T1, Muscarinic acetylcholine receptor M1 (Rattus norvegicus) (UniProt P08482); assay: Agonist activity at rat muscarinic M1 receptor expressed in CHO cells at 10 uM
T1 sequence (whole entry): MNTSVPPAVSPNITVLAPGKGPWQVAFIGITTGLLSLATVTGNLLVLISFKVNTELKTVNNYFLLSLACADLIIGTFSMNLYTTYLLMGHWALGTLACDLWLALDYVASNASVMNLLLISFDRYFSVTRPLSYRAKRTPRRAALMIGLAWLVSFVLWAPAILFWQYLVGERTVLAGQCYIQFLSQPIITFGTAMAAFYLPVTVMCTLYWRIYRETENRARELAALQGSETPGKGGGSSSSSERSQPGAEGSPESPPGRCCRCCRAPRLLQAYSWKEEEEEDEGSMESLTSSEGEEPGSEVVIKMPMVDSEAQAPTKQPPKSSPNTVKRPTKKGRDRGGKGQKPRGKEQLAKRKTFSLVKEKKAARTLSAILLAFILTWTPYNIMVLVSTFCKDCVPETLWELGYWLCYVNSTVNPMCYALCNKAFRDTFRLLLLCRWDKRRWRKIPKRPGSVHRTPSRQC

[2] = target: T1, Muscarinic acetylcholine receptor M1 (Rattus norvegicus); assay: Agonist activity at rat muscarinic M1 receptor expressed in CHO cells relative to acetylcholine
[3] = target: T2, Muscarinic acetylcholine receptor M2 (Rattus norvegicus, UniProt P10980); assay: Agonist activity at rat muscarinic M2 receptor expressed in CHO cells
T2 sequence (P10980 whole entry): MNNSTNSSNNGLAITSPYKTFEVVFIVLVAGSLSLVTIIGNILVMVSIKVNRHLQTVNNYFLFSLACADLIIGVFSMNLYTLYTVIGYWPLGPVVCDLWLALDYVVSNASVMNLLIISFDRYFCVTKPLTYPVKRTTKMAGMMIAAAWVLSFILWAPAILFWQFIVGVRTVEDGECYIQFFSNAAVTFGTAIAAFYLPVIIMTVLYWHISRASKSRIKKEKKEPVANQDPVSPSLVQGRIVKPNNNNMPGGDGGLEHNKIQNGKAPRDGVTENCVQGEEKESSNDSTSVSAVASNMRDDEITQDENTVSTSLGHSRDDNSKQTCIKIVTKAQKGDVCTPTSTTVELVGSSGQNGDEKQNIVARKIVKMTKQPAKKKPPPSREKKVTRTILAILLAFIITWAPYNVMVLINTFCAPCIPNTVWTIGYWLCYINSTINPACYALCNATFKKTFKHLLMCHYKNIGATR

[4] = target: Muscarinic acetylcholine receptor M3 (Rattus norvegicus, UniProt P08483); assay: Agonist activity at rat muscarinic M3 receptor expressed in CHO cells
[5] = target: T3, Muscarinic acetylcholine receptor M4 (Rattus norvegicus, UniProt P08485); assay: Agonist activity at rat muscarinic M4 receptor expressed in CHO cells
T3 sequence (P08485 whole entry): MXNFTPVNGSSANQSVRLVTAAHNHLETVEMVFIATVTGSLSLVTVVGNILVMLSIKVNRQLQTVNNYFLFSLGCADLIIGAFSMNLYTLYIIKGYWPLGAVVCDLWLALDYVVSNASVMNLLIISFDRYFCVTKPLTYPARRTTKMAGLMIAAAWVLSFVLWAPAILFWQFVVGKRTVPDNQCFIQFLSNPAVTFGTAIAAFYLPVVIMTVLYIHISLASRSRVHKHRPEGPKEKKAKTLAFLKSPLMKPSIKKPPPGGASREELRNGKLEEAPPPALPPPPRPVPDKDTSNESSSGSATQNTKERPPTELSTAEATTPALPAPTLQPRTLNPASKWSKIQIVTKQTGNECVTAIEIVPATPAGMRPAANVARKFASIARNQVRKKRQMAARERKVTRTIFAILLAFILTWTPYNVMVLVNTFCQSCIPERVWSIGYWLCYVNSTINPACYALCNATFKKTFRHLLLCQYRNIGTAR

[6] = target: T4, Muscarinic acetylcholine receptor M5 (Rattus norvegicus, UniProt P08911); assay: Agonist activity at rat muscarinic M5 receptor expressed in CHO cells
T4 sequence (P08911 whole entry): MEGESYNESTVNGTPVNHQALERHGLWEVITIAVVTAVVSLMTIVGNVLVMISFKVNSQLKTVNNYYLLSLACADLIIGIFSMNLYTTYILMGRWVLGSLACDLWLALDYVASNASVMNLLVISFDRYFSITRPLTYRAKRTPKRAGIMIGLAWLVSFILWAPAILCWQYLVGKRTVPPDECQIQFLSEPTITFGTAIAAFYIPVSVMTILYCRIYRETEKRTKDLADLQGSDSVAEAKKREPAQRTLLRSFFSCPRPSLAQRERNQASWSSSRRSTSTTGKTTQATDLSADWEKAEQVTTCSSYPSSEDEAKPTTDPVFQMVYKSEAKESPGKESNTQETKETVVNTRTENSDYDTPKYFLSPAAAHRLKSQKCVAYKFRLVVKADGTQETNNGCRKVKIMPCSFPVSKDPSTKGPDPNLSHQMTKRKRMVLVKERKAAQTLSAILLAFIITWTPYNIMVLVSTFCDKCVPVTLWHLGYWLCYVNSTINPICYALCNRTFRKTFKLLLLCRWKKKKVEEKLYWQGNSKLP

[7] = target: T5, Muscarinic acetylcholine receptor M1 (Rattus norvegicus, UniProt P08482); assay: Agonist activity at rat muscarinic M1 receptor expressed in CHO cells
T5 sequence (P08482 whole entry): T1 sequence (whole entry)

Sequence of Muscarinic acetylcholine receptor M3 (P08483 whole entry): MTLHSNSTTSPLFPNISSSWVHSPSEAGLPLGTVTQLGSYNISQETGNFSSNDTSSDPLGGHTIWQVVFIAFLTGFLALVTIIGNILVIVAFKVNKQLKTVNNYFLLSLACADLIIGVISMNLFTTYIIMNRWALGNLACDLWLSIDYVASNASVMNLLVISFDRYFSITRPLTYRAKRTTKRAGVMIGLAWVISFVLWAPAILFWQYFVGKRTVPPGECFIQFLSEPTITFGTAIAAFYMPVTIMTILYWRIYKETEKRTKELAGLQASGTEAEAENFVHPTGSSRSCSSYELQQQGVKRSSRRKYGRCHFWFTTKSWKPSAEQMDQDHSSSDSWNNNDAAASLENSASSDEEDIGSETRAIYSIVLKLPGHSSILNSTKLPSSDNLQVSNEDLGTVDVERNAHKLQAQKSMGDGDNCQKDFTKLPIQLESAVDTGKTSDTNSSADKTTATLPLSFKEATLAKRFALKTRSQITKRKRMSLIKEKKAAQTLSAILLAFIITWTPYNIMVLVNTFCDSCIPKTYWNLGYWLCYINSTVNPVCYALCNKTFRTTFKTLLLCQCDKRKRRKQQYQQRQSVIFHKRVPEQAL

Row | activation [1] | Emax [2] | pEC50 [3] | pEC50 [4] | pEC50 [5] | pEC50 [6] | pEC50 [7] | Compound
1 | < 30% |  |  |  |  |  |  | CCOC(=O)N1CCC(N2CC[C@@H](NC(=O)c3ccccc3C)C2)CC1
2 |  | 35% | < 5.00 | < 5.00 | < 5.00 | < 5.00 |  | CCOC(=O)N1CCC(N2CCC[C@@H](NC(=O)C3CCCC3)C2)CC1
3 | < 30% |  |  |  |  |  |  | CCOC(=O)N1CCC(N2C[C@H]3CN(C(=O)c4ccccc4C)C[C@H]3C2)CC1
4 |  | 92% | < 5.00 | < 5.00 | < 5.00 | < 5.00 | 6.85 | CCOC(=O)N1CCC(N2CCC[C@@H](NC(=O)c3cccc(F)c3)C2)CC1
5 |  | 91% | < 5.00 | < 5.00 | < 5.00 | < 5.00 | 6.60 | CCOC(=O)N1CCC(N2CCC[C@@H](NC(=O)c3cccc(OC)c3)C2)CC1
6 | < 30% |  |  |  |  |  |  | CCOC(=O)N1CCC(N2CCN(C(=O)c3ccccc3C)CC2)CC1
7 | < 30% |  |  |  |  |  |  | CCOC(=O)N1CCC(N2C[C@@H]3C[C@H]2CN3C(=O)c2ccccc2C)CC1
8 |  | 84% | < 5.00 | < 5.00 | < 5.00 | < 5.00 |  | CCOC(=O)N1CCC(N2CCC[C@@H](NC(=O)c3ccc(F)c(F)c3)C2)CC1
9 | < 30% |  |  |  |  |  |  | CCOC(=O)N1CCC(N2CC[C@H](NC(=O)c3ccccc3C)C2)CC1

More lines, now with the values behind:

Row | Compound | activation [1] | Emax [2] | pEC50 [3] | pEC50 [4] | pEC50 [5] | pEC50 [6] | pEC50 [7]
10 | CCOC(=O)N1CCC(N[C@H]2CCN(C(=O)c3ccccc3C)C2)CC1 | < 30% |  |  |  |  |  | 
11 | CCOC(=O)N1CCC(N2CCC[C@@H](NC(=O)c3ccc(C)cc3)C2)CC1 |  | 41% | < 5.00 | < 5.00 | < 5.00 | < 5.00 | 
12 | CCOC(=O)N1CCC(N2CCC[C@@H](NC(=O)C3CCCCC3)C2)CC1 |  | 44% | < 5.00 | < 5.00 | < 5.00 | < 5.00 | 
13 | CCOC(=O)N1CCC(N2CCC[C@H](NC(=O)c3ccccc3C)C2)CC1 | inactive |  |  |  |  |  | 
14 | CCOC(=O)N1CCC(N2CCC[C@@H](NC(=O)c3ccccc3Cl)C2)CC1 |  | 57% | < 5.00 | < 5.00 | < 5.00 | < 5.00 | 
15 | CCOC(=O)N1CCC(N2CCC[C@@H](NC(=O)c3ccc(F)cc3C)C2)CC1 |  | 77% | < 5.00 | < 5.00 | < 5.00 | < 5.00 | 7.22
16 | CCOC(=O)N1CCC(N2CCC[C@@H](NC(=O)c3ccccc3)C2)CC1 |  | 91% | < 5.00 | < 5.00 | < 5.00 | < 5.00 | 6.89
17 | CCOC(=O)N1CCC(N[C@@H]2CCN(C(=O)c3ccccc3C)C2)CC1 | < 30% |  |  |  |  |  | 
18 | CCOC(=O)N1CCC(N2CCC[C@@H](NC(=O)c3ccc(OC)cc3)C2)CC1 |  | 63% | < 5.00 | < 5.00 | < 5.00 | < 5.00 | 
19 | CCOC(=O)N1CCC(N2CCC[C@@H](NC(=O)c3cccs3)C2)CC1 |  | 61% | < 5.00 | < 5.00 | < 5.00 | < 5.00 | 

Source: ChEMBL document CHEMBL1914417 (Bioorg Med Chem Lett, 2011)
